Assay results: US10159678B2, “Methods to decrease susceptibility to asthmatic bronchoconstriction” (Cornell University, priority 2012, dated 2018)

What was measured:
TRPM7 = test: Lung magnesium homeostasis (TRPM6/TRPM7 mRNA, total lung magnesium) after myriocin; type: in vivo, mice
Text: It is proportional to the magnesium concentration.

isolated bronchial rings = test: MgSO4-induced relaxation of methacholine-stimulated bronchial rings from myriocin-treated mice; conditions: rings from mice given intranasal myriocin (20 μg), methacholine then MgSO4 (15 mM); FIG. 5C
Description: The effect of Mg^2+ supplementation on methacholine-induced contraction of bronchial rings was analyzed by adding MgSO4 (15 mM) to the myograph bath solution following stimulation with methacholine (10 μM).

[1] = system: lung sphingolipid composition; test: Lung sphingolipid composition by UPLC-MS/MS after intranasal myriocin; type: in vivo, BALB/c mice
Description: Animal studies described herein were conducted under protocols approved by the Institutional Animal Care and Use Committee of Weill Cornell Medical College. Female BALB/c mice, obtained from Taconic Farms (Tarrytown, N.Y.). Animals were housed under specific pathogen-free conditions and used at 6 to 8 weeks of age. Myriocin (Enzo Life Sciences, Plymouth Meeting, Pa.) was freshly prepared from a 10 mM stock solution to a 1 mM or 100 μM solution in 0.9% saline and 0.05% fatty acid free bovine serum albumin and 50 μl were administered intranasally. Control animals received the vehicle solution (1% DMSO in 0.9% saline, […] BSA) or were naïve. Three hours later the animals underwent pulmonary function testing and were sacrificed. Heterozygous SPT-deficient mice (Sptlc2^+/−) or homozygous controls (Sptlc2^+/+) were bred, identified by genotyping using procedures like those described by Hojjati et al. (2005) and used at 6-8 weeks of age.
Lungs were harvested following perfusion with phosphate-buffered saline (PBS, Invitrogen, Carlsbad, Calif.) containing 0.6 mM ethylenediamine tetra acetic acid dipotassium salt dehydrate (EDTA, Invitrogen) via the right ventricle to remove blood cells from the pulmonary circulation. The lungs were then homogenized in normal PBS. De-novo sphingolipid synthesis was assessed by evaluating incorporation of ^3H-serine (24.1 Ci/mmol, Perkin Elmer (Boston, Mass.) into ceramide and sphingosine. Sphingolipid synthesis through the recycling pathway was assessed by evaluating incorporation of ^3H-sphingosine (18.2 Ci/mmol, Perkin Elmer (Boston, Mass.) into ceramide and sphingomyelin. In both assays, equal amounts of fresh lung homogenates were incubated for 30 min at 37° C. with 2 μl of the radioactive tracer, followed by lyophilization to determine dry weight, lipid extraction with chloroform/methanol/water (1:1:0.9). The organic phase was evaporated, dissolved in 50 μl chloroform/methanol (1:1) spotted on […] chromatography plates (TLC) (Merck Silica gel 60, Darmstadt, Germany) and chromatographed for 25 min with chloroform-methanol-ammonium hydroxide (65:25:4 v/v). Ceramides, sphingomyelin, phosphatidylserine, sphinganine and sphingosine, all dissolved at 1 μg/μl were run as standards. The lipids were identified according to their Rf values after visualization in an iodine vapor tank. The TLC plate was cut at the corresponding lipid spot, mixed with scintillation fluid (Ultima Gold, Packard Instrument Company, CT) and analyzed in a scintillation counter (Perkin Elmer Wallac, Gaithersburg, Md.). Results are calculated as dpm/mg protein.
Sphinganine, sphingosine, sphinganine-1-phosphate, sphingosine-1-phosphate, ceramides (Cer16, Cer18, Cer20, Cer22, Cer24:1, Cer24) were quantified in lung homogenates by ultra-performance liquid chromatography-tandem mass spectrometry (UPLC-MS/MS), on a Waters Xevo, equipped with a Waters BEH Phenyl UPLC Column (ACQUITY UPLC BEH Phenyl Column, 3.0×100 mm, 1.7 μm and a ACQUITY BEH Phenyl VanGuard Pre-column, 2.1×5 mm, 1.7 μm in the Columbia University Lipid Core as reported by Shaner et al. (2009) with minor modifications. […] of an internal standard mix (Avanti Polar Lipids, Mix 1) in ethanol, 0.5 ml methanol and 0.25 ml chloroform were added to the lyophilized lung homogenates and sonicated for 12 h at 48° C. After centrifugation at 10,000 g for 5 min, the supernatant was evaporated in a glass tube and resuspended in 100 μl methanol. 10 μl were injected into the UPLC-MS/MS. Results are calculated as pmol/mg.
Myriocin is a potent and specific inhibitor of SPT that affects SPT independent of orm. To assess if direct administration of myriocin to the respiratory tract affects pulmonary sphingolipid synthesis, the lung sphingolipid composition was determined by ultra-performance liquid chromatography-tandem mass spectrometry (UPLC-MS/MS) 3 h following intranasal administration of myriocin.

CCCCCCC(=O)CCCCCC/C=C/C[C@@H](O)[C@H](O)[C@@](N)(CO)C(=O)O [myriocin]
expression of TRPM6 (TRPM7; data not shown): not altered
expression of TRPM7 in the lungs (TRPM7; mice that had received myriocin, FIG. 5A): increased
lung magnesium levels (TRPM7; myriocin-treated (20 μg) mice, FIG. 5B): reduced
magnesium-induced relaxation of bronchial rings (isolated bronchial rings): impaired
sphinganine in the lung ([1]; 3 h following intranasal administration of myriocin (20 μg), FIG. 1A): reduced
sphingosine levels in the lung ([1]; 3 h following intranasal myriocin (20 μg), FIG. 1B): not significantly decreased
sphinganine-1P (Sa1P) levels in the lung ([1]; 3 h following intranasal myriocin (20 μg), FIG. 1C): not significantly decreased
sphingosine-1P (S1P) levels in the lung ([1]; 3 h following intranasal myriocin (20 μg), FIG. 1D): not significantly decreased
sum of ceramides (C14, C16, C18, C20, C22, C24, C24:1) in the lung ([1]; 3 h following intranasal myriocin (20 μg), FIG. 1E-1G): decreased
certain individual ceramides in the lung ([1]; 3 h following intranasal myriocin, FIGS. 1F and 1G): individually decreased
